EP0431480A2, “Substituted 10-ring-lactones, process for their preparation and their use” (HOECHST AKTIENGESELLSCHAFT, priority 1989, dated 1991)

Experiments:
Serumlipoproteine = assay: Chronic test in male rats: 7 daily oral doses, serum lipoproteins separated by preparative ultracentrifugation; format: in vivo, Ratte; conditions: for Vasoprotektiv Index HDL-C LDL-C: HDL-Cholesterin : LDL-Cholesterin, Kontrolle 3,24
Source text: Die Hemmung der hepatischen Cholesterinbiosynthese hat Auswirkungen auf die Verminderung von Serum-Lipiden, wie im chronischen Versuch an der männlichen Ratte nachgewiesen werden konnte (Tabelle 2).
Gruppen männlicher Ratten des Stammes HOE: WISKf (SPF 71) mit einem Ausgangsgewicht von etwa 240 g erhielten täglich morgens die erfindungsgemäßen Verbindungen in Polyethylenglykol 400 per
Schlundsonde, wobei die jeweilige Kontrollgruppe nur das Vehikel erhielt. 24 Stunden nach der letzten (7.) Applikation und nach 24 Stunden Futterentzug wurde Blut entnommen und im gewonnen Serum die Lipoproteine aus dem Pool einer Rattengruppe mittels der präparativen Ultrazentrifugentechnik getrennt. Hierbei wurden folgende Dichtegrenzen für die Trennung von VLDL, LDL und HDL benutzt:
• VLDL = very low density lipoprotein • LDL = low density lipoprotein • HDL = high density lipoprotein
Für die Bestimmung des Cholesterins und der Triglyceride wurden vollenzymatische Methoden nach Boehringer/Mannheim benutzt, für die Bestimmung des Proteins die Methode von Lowry et al. J. Biol. Chem., 193, 265 (1951) herangezogen. […] Daraus resultiert eine Erhöhung des vasoprotektiven Index (HDL-Cholesterin : LDL-Cholesterin) mit einer ca. 8-fach höheren Potency als Clofibrat.

HEP-G2-Zellen = assay: Inhibition of cholesterol biosynthesis: incorporation of 14C sodium acetate into cholesterol in HEP-G2 cell monolayers; format: cell-based; conditions: Homo sapiens; for inhibition at 0.1 µM: HepG2, Konzentration im Medium 10^-7 M; for inhibition at 0.0025 µM: HepG2, Konzentration im Medium 2,5·10^-9 M
Source text: Hemmung der Cholesterin Biosynthese
Die Hemmung der Cholesterin Biosynthese durch die erfindungsgemäßen Verbindungen wurde in Zellkulturversuchen mit HEP-G2-Zellen über die Wirkung auf den Einbau von ^14C-Natriumacetat in Cholesterin nachgewiesen. Dazu wurden Monolayers von HEP-G2-Zellen in lipoproteinfreiem Nährmedium mit entsprechenden Konzentrationen der erfindungsgemäßen Verbindungen eine Stunde vorinkubiert; nach Zugabe des^14C markierten Präkursors ^14C-Natriumacetat wurde die Inkubation für 3 Stunden fortgesetzt. Danach wurde ein Teil der Zellen alkalisch verseift, nach vorheriger Zugabe eines internen Standards von ^3H-Cholesterin. Die Lipide der verseiften Zellen wurden mit Chloroform-Methanol extrahiert. Dieses Lipidgemisch wurde nach Zusatz von Trägercholesterin präparativ dünnschichtchromatographisch getrennt, die Cholesterinbande nach dem Sichtbarmachen isoliert und die aus dem 14C-Präkursor gebildete Menge '^4C-Cholesterin szintigraphisch bestimmt. In einem aliquoten Teil der Zellen wurde Zellprotein bestimmt, so daß die in der Zeiteinheit pro mg Zellprotein aus 14C-Präkursor gebildete Menge an ^14C-Cholesterin berechnet werden konnte. Zum Vergleich für die Hemmwirkung einer zugesetzten erfindungsgemäßen Verbindung diente die Kontrolle, so daß direkt die Hemmung der Cholesterinbiosynthese bei einer bestimmten molaren Konzentration der erfindungsgemäßen Verbindung im Medium angegeben werden konnte. Zur Beurteilung der Wirkungstärke der erfindungsgemäßen Verbindungen wurde die Hemmwirkung von Lovastatin im selben Versuchsansatz bestimmt. In aliquoten Anteilen der Zellkultur wurde die Intaktheit der Zellkultur und die fehlende Zellschädigung durch Einwirkung der erfindungsgemäßen Verbindung morphologisch (Lichtmikroskop) beurteilt und biochemisch durch Bestimmung des Release von Laktat-Dehydrogenase ins Inkubationsmedium gemessen.
Das Ergebnis dieser Untersuchung ist in Tabelle 2 wiedergegeben. Die Wirkung der erfindungsgemäßen Substanzen als Cholesterin-Biosynthese-Hemmer ist deutlich zu erkennen. In den geprüften Konzentrationen hatten die erfindungsgemäßen Verbindungen im Zeitraum von 4 Stunden keine cytotoxische Wirkung.

[1] = read-out: % Cholesterin-Biosynthese-Hemmung

CCOC(=O)C(C)(C)Oc1ccc(Cl)cc1 [Clofibrat, reference compound]
Beeinflussung der Serumlipoproteine im Vergleich zur Kontrollgruppe in % HDL-C (Serumlipoproteine; 100 mg/kg/Tag oral, 7 days): -36% | Beeinflussung der Serumlipoproteine im Vergleich zur Kontrollgruppe in % HDL-Protein (Serumlipoproteine; 100 mg/kg/Tag oral, 7 days): -14% | Beeinflussung der Serumlipoproteine im Vergleich zur Kontrollgruppe in % LDL-C (Serumlipoproteine; 100 mg/kg/Tag oral, 7 days): -47% | Beeinflussung der Serumlipoproteine im Vergleich zur Kontrollgruppe in % LDL-Protein (Serumlipoproteine; 100 mg/kg/Tag oral, 7 days): -13% | Beeinflussung der Serumlipoproteine im Vergleich zur Kontrollgruppe in % VLDL-C (Serumlipoproteine; 100 mg/kg/Tag oral, 7 days): -56% | Vasoprotektiv Index HDL-C LDL-C (Serumlipoproteine; 100 mg/kg/Tag oral, 7 days): 3,87

CC(=O)OC1CC(=O)CC(=O)OC(C)CC2OC12 (centres unmarked) [II.1]
inhibition at 0.1 µM (HEP-G2-Zellen; [1]): 13%

CC1CC2OC2C(OC(=O)c2ccccc2)CC(=O)CC(=O)O1 (centres unmarked) [II.3]
Beeinflussung der Serumlipoproteine im Vergleich zur Kontrollgruppe in % HDL-C (Serumlipoproteine; 30 mg/kg/Tag oral, 7 days): +22% | Beeinflussung der Serumlipoproteine im Vergleich zur Kontrollgruppe in % LDL-C (Serumlipoproteine; 30 mg/kg/Tag oral, 7 days): -19% | Beeinflussung der Serumlipoproteine im Vergleich zur Kontrollgruppe in % LDL-Protein (Serumlipoproteine; 30 mg/kg/Tag oral, 7 days): -14% | Beeinflussung der Serumlipoproteine im Vergleich zur Kontrollgruppe in % VLDL-C (Serumlipoproteine; 30 mg/kg/Tag oral, 7 days): -21% | Vasoprotektiv Index HDL-C LDL-C (Serumlipoproteine; 30 mg/kg/Tag oral, 7 days): 4,88 | Wirkung auf LDL, VLDL und HDL-Fraktion (in words) (Serumlipoproteine; 7-tägige orale Applikation, lower dose than Clofibrat): deutlichen Verminderung von LDL und VLDL, bei Erhöhung der HDL-Fraktion | Verträglichkeit (Anwendung der Substanz von den Ratten vertragen) (Serumlipoproteine; 7 days oral): anstandslos vertragen | Hepatomegalie (Serumlipoproteine; 7 days oral, in contrast to Clofibrat): keine Hepatomegalie | Erhöhung des vasoprotektiven Index (HDL-Cholesterin : LDL-Cholesterin): höhere Potency als Clofibrat (Serumlipoproteine; relative to Clofibrat, 7 days oral): ca. 8 -fach

CC1CC2OC2C(OC(=O)Nc2ccccc2)CC(=O)CC(=O)O1 (centres unmarked) [II.4, 2,4-Dioxo-10-methyl-1-oxa-6-(phenyl-amino-carbonyl-oxy)-7-cyclodecenoxid]
inhibition at 0.1 µM (HEP-G2-Zellen; [1]): 68%

CCC(=O)OC1CC(=O)CC(=O)OC(C)CC2OC12 (centres unmarked) [II.8]
inhibition at 0.0025 µM (HEP-G2-Zellen; [1]): 51% | inhibition at 0.1 µM (HEP-G2-Zellen; [1]): 69%

CC(C)CC(=O)OC1CC(=O)CC(=O)OC(C)CC2OC12 (centres unmarked) [II.10]
inhibition at 0.0025 µM (HEP-G2-Zellen; [1]): 48% | inhibition at 0.1 µM (HEP-G2-Zellen; [1]): 59%

CCCCC(=O)OC1CC(=O)CC(=O)OC(C)CC2OC12 (centres unmarked) [II.11, 6-Butylcarbonyloxy-2,4-dioxo-10-methyl-1-oxa-7-cyclodecenoxid]
inhibition at 0.0025 µM (HEP-G2-Zellen; [1]): 57% | inhibition at 0.1 µM (HEP-G2-Zellen; [1]): 73%

CCCCCC(=O)OC1CC(=O)CC(=O)OC(C)CC2OC12 (centres unmarked) [II.13]
inhibition at 0.01 µM (HEP-G2-Zellen; HepG2, Konzentration im Medium 10^-8 M, read-out: % Cholesterin-Biosynthese-Hemmung): 44% | inhibition at 0.001 µM (HEP-G2-Zellen; HepG2, Konzentration im Medium 10^-9 M, read-out: % Cholesterin-Biosynthese-Hemmung): 37%

CC[C@H](C)C(=O)O[C@H]1C[C@@H](C)C=C2C=C[C@H](C)[C@H](CC[C@@H]3C[C@@H](O)CC(=O)O3)[C@H]21 [Lovastatin, reference compound]
IC50 (HEP-G2-Zellen; HepG2, Lovastatin in the same experimental run as the substance of the row, read-out: Vergleichsreihe für Lovastatin im selben Versuchsansatz IC50): 0.01 µM
